The text below walks through data of publication PMC3157426 (PLoS ONE, 2011).

Assay [1] concerns the target B/Perth/211/01 D197E mutant NA (Influenza B virus, UniProt Q3S340, D197E). It is filed as biochemical, influenza B virus B/Perth/211/01.
Assay [2] addresses A/Fukui/45/04 H3N2 E119V mutant NA (Influenza A virus, UniProt C0IZY2, E119V). It is filed as biochemical, influenza virus A/Fukui/45/04 H3N2.
Assay [3] has as its target A/Mississippi/03/01 H1N1 H274Y mutant NA (Influenza A virus, UniProt Q289M4, H275Y). It is filed as biochemical, influenza virus A/Mississippi/03/01 H1N1.
[4] abbreviates: read-out: IC50 at 10 min, 30' Pre.
Where [5] appears, read: read-out: IC50 at 10 min, No pre.
Setting [6] is: read-out: final IC50 after 60 min, 30' pre.
Where [7] appears, read: read-out: final IC50 after 60 min, No pre.

pIC50: −log10 of the molar value. Entries after “also recorded” stand apart in the source; their conditions may differ. Read-outs that look alike come from different tables or passages of the source.

The pIC50 is −log10 of the IC50, conventionally taken in molar units. Turning to `CCC(CC)[C@H](NC(C)=O)[C@@H]1[C@H](O)[C@@H](C(=O)O)C[C@H]1N=C(N)N` [Peramivir, peramivir], the “10'/60 (ratio of IC50s), No pre” value is given as 2.5 in assay [1], 7.2 in assay [2] and 0.7 in assay [3]. Further, the figures for the “No pre/pre (ratio of 60 min IC50s)” value in assay [1], in assay [2] and in assay [3] were 1.8, 10.2 and 1.3, respectively. Also, the “binding phenotype (slow or fast binding)” value in assay [1] and in assay [3] was “loss of slow binding” each time. For the same compound, the negative-log IC50 (pIC50) in assay [1] (setting [4]) was 8.41; in assay [1] (setting [5]) it was 6.73; in assay [1] (setting [6]) it was 7.38; in assay [1] (setting [7]), 7.12; in assay [2] (setting [4]), 8.85; in assay [2] (setting [5]) it was 6.81. Further, the pIC50 in assay [2] (setting [6]) was 8.68; in assay [2] (setting [7]) it was 7.67; in assay [3] (setting [4]) it was 7.00; in assay [3] (setting [5]) it was 6.89; in assay [3] (setting [6]), 6.82; in assay [3] (setting [7]) it was 6.71. For the same compound, the “60'/10 (ratio of IC50s), 30' Pre” value in assay [2] and in assay [3] was 1.5 throughout.

With oseltamivir carboxylate, the “binding phenotype (slow or fast binding)” value in assay [2] is “fast binding; also recorded: loss of slow binding”; in assay [3] it was “loss of slow binding”. Further, the negative logarithm of the IC50 (pIC50) in assay [2] (setting [4]) was 6.91; in assay [2] (setting [5]), 6.75; in assay [2] (setting [6]) it was 6.59; in assay [2] (setting [7]) it was 6.68; in assay [3] (setting [4]), 5.80; in assay [3] (setting [5]), 5.72. The pIC50 was 5.61 in assay [3] (setting [6]) and 5.63 in assay [3] (setting [7]).

With `CC(=O)N[C@H]1[C@H]([C@H](O)[C@H](O)CO)OC(C(=O)O)=C[C@@H]1O` [DANA, 2-deoxy,2,3-dehydro N-acetyl neuraminic acid], the “binding phenotype (slow or fast binding)” value in assay [1], in assay [2] and in assay [3] was “fast binding” in each case. Further, in assay [1], the “susceptibility compared to the wild type virus” value is reported as “Some reduced susceptibility”.

On to `CC(=O)N[C@H]1[C@H]([C@H](O)[C@H](O)CO)OC(C(=O)O)=C[C@@H]1N=C(N)N` [Zanamivir, zanamivir], for which the “binding phenotype (slow or fast binding)” value in assay [2] is on record as “slow binding phenotype”; in assay [3], “no impact on the binding kinetics”.
